From patent US7572806B2, “PPAR active compounds” (Plexxikon, Inc., priority 2003, dated 2009)
Read-outs that look alike come from different tables or passages of the source.

Assays:
[1] = biological target: T1, murine PPARα (Mus musculus, UniProt P23204); conditions: cited from earlier work
T1 sequence (P23204 1-468): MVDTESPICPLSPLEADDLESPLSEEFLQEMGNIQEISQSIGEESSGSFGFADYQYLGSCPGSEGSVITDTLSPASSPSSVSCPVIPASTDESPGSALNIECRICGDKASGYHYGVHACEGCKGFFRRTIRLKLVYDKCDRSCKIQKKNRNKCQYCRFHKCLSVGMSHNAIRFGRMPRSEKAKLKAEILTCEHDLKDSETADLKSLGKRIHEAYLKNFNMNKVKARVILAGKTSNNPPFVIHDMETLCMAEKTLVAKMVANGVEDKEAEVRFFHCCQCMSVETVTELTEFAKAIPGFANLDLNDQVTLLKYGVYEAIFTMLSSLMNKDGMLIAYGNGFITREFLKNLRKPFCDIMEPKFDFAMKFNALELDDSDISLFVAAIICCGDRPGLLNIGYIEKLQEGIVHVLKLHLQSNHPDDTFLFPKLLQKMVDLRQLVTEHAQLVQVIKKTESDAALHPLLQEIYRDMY

[2] = biological target: T2, PPARδ (Homo sapiens, UniProt Q03181); conditions: cited from earlier work
T2 sequence (Q03181 1-441): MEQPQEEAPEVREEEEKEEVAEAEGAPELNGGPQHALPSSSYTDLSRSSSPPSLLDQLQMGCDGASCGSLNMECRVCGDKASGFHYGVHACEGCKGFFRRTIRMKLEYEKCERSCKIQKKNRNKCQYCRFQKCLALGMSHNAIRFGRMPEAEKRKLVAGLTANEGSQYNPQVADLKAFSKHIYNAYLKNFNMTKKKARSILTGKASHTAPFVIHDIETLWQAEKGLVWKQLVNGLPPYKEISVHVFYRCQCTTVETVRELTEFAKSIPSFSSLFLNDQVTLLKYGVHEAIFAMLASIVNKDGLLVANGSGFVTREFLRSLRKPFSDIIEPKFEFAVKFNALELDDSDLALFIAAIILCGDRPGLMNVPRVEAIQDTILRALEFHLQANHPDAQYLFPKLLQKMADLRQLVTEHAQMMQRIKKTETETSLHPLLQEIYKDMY

[3] = biological target: T2, PPARδ; assay: Alpha screen assay, agonist mode, ligand dependent interaction of PPAR with coactivator peptide; type: biochemical
Protocol: (§1) The homogenous Alpha screen assay was used in the agonist mode to determine the ligand dependent interaction of the PPARs (α,δ,γ) with the coactivator peptides (SRC or DRIP205). Briefly 15 ul of the reaction mix (50 mM Tris pH 7.5, 50 mM Kcl, 0.05% Tween 20, 1 mM DTT, 0.1% BSA and 10 nM-200 nMPPAR and […] coactivator peptide) was added to the test compound (1 ul compound in DMSO) and preincubated for 1-6 hr. Next, 5 ul of the Alpha screen beads were added. The reactions were incubated for 2 hrs before taking the reading in the Fusion alpha instrument. In the antagonist mode compounds were assayed for inhibition of the co-activator binding signal caused by the control agonists for each receptor.
(§2) The controls agonists used were WY-14643(PPAR(α), farglitazar (PPAR(γ) and bezafibrate (PPAR(δ).
(§3) Using the assay above, compounds from Table 1 were analyzed for activity. The data reported in Table 2 was generated via the alpha screen assay and expressed in μMol/L. The data points from the Fusion alpha instrument were transferred to Assay Explorer® (MDL) to generate a curve and calculate the inflection point of the curve as EC50.

[4] = biological target: T3, PPARα (Homo sapiens, UniProt Q07869); assay: as above; type: biochemical
T3 sequence (Q07869 1-468): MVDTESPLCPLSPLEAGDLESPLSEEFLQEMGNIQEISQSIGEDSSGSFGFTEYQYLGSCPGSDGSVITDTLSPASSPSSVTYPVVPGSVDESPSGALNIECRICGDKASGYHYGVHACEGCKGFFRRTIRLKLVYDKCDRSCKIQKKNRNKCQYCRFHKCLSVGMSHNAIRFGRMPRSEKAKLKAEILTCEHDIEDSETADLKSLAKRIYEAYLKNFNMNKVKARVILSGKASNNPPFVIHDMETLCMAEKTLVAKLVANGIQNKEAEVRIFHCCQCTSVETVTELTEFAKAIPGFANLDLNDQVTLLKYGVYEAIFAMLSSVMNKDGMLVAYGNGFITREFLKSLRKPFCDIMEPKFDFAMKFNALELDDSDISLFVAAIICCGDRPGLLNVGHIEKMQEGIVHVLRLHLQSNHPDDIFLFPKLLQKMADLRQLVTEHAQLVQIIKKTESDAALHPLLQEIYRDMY
Protocol: as §1, §2, §3

[5] = biological target: T4, PPARγ (Homo sapiens, UniProt P37231); assay: as above; type: biochemical; conditions: for EC50: Alpha screen
T4 sequence (P37231 1-505): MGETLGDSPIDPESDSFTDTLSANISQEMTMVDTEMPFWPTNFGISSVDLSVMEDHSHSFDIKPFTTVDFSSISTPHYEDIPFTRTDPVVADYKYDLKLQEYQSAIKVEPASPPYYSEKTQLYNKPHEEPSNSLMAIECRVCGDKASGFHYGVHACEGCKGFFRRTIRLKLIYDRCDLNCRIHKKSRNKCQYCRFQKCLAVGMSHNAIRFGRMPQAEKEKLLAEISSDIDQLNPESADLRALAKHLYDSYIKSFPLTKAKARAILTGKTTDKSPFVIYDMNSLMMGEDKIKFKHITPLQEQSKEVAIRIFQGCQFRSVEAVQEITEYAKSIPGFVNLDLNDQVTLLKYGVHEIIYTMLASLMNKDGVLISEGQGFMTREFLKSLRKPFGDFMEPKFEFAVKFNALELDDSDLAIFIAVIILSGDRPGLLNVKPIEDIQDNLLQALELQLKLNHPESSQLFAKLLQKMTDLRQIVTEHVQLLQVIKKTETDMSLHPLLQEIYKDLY
Protocol: as §1, §2, §3

[6] = test system: PPARs (α,δ,γ); assay: Alpha screen assay, pan-activity across the PPARs; type: biochemical, human; conditions: PPARα, PPARδ and PPARγ
Protocol: as §1, §2, §3

[7] = large prospective trial; cited from earlier work
[8] = agonist mode, read-out: PPARδ Agonist
[9] = agonist mode, read-out: PPARα agonist
[10] = agonist mode, read-out: PPARγ Agonist

EC50 [3, 8] | EC50 [4, 9] | EC50 [5, 10] | SMILES | further results
> 10 µM | > 10 µM | ≤ 10 µM | CCc1ccc2c(c1)c(CCC(=O)O)cn2S(=O)(=O)c1ccccc1 [compound 6, 3-(1-Benzenesulfonyl-5-ethyl-1H-indol-3-yl)-propionic acid] | EC50 ([3]; read-out: activity on PPARδ): ≥ 200 µM; EC50 ([4]; read-out: activity on PPARα): ≥ 200 µM; EC50 ([5]; read-out: activity on PPARγ): ~8 µM; selectivity ([5]; PPARγ versus PPARα and δ): selective for PPARγ
≤ 10 µM | ≤ 10 µM | ≤ 10 µM | COc1ccc2c(c1)c(CCC(=O)O)cn2S(=O)(=O)c1ccc(Cl)cc1 [compound 49, 3-[1-(4-Chloro-benzenesulfonyl)-5-methoxy-1H-indol-3-yl]-propionic acid] | 
> 10 µM | ≤ 10 µM | > 10 µM | COc1ccc2c(c1)c(CCC(=O)O)cn2Cc1ccccc1 [compound 71, 3-(1-Benzyl-5-methoxy-1H-indol-3-yl)-propionic acid] | 
> 10 µM | > 10 µM | > 10 µM | COc1ccc2c(c1)c(CCC(=O)O)cn2C(=S)Nc1ccccc1 [compound 75, 3-(5-Methoxy-1-phenylthiocarbamoyl-1H-indol-3-yl)-propionic acid] | 
≤ 10 µM | ≤ 10 µM | ≤ 10 µM | CCCCc1ccc(S(=O)(=O)n2cc(CCC(=O)O)c3cc(OC)ccc32)cc1 [compound 77, 3-[1-(4-Butyl-benzenesulfonyl)-5-methoxy-1H-indol-3-yl]-propionic acid] | 
> 10 µM | ≤ 10 µM | > 10 µM | COc1ccc2c(c1)c(CCC(=O)O)cn2C(=O)c1ccccc1 [compound 81, 3-(1-Benzoyl-5-methoxy-1H-indol-3-yl)-propionic acid] | 
> 10 µM | ≤ 10 µM | ≤ 10 µM | O=C(O)CCc1cn(S(=O)(=O)c2ccccc2)c2ccc(-c3ccsc3)cc12 [compound 92, 3-(Benzenesulfonyl-5-thiophen-3-yl-1H-indol-3-yl)-propionic acid] | 

Further lines, the compound ahead of its results:

SMILES | EC50 [3, 8] | EC50 [4, 9] | EC50 [5, 10] | further results
CCCc1c(OCCCOc2ccc(OCC(=O)O)cc2)ccc(C(C)=O)c1O [L-165041] |  |  |  | activity on murine PPARα [1]: inactive; agonist selectivity for PPARδ over PPARγ [2]: approximately 30 fold
COc1ccc2c(c1)c(CCC(=O)O)cn2S(=O)(=O)c1ccccc1 [compound 29, 3-(1-Benzenesulfonyl-5-methoxy-1H-indol-3-yl)-propionic acid] | ≤ 10 µM | ≤ 10 µM | ≤ 10 µM | pan-activity [6]: low micromolar or even sub-micromolar
O=C(O)CCc1nn(S(=O)(=O)c2ccccc2)c2ccccc12 [compound 39, 3-(1-Benzenesulfonyl-1H-indazol-3-yl)-propionic acid] | > 10 µM | > 10 µM | > 10 µM | 
CCCCOc1ccc(S(=O)(=O)n2cc(CCC(=O)O)c3cc(OC)ccc32)cc1 [compound 43, 3-[1-(4-Butoxy-benzenesulfonyl)-5-methoxy-1H-indol-3-yl]-propionic acid] | ≤ 10 µM | ≤ 10 µM | ≤ 10 µM | pan-activity [6]: low micromolar or even sub-micromolar
COc1ccc2c(c1)c(CCC(=O)O)cn2S(=O)(=O)c1ccc(Cl)c(Cl)c1 [compound 53, 3-[1-(3,4-Dichloro-benzenesulfonyl)-5-methoxy-1H-indol-3-yl]-propionic acid] | ≤ 10 µM | ≤ 10 µM | ≤ 10 µM | pan-activity [6]: low micromolar or even sub-micromolar
COc1ccc2c(c1)c(CCC(=O)O)cn2S(=O)(=O)c1cccc(OC(F)(F)F)c1 [compound 79, 3-[5-Methoxy-1-(3-trifluoromethoxy-benzenesulfonyl)-1H-indol-3-yl]-propionic acid] | ≤ 10 µM | ≤ 10 µM | ≤ 10 µM | 
CCOc1ccc2c(c1)c(CCC(=O)O)cn2S(=O)(=O)c1ccccc1 [compound 82, 3-(1-Benzenesulfonyl-5-ethoxy-1H-indol-3-yl)-propionic acid] | ≤ 10 µM | ≤ 10 µM | ≤ 10 µM | 
COc1ccc2c(c1)c(CCC(=O)O)cn2C(=O)Nc1ccccc1 [compound 85, 3-(5-Methoxy-1-phenylcarbamoyl-1H-indol-3-yl)-propionic acid] | > 10 µM | > 10 µM | > 10 µM | 
O=C(O)CCc1cn(S(=O)(=O)c2ccccc2)c2ccccc12 [compound 97, 3-(1-Benzenesulfonyl-1H-indol-3-yl)-propionic acid] | > 10 µM | > 10 µM | > 10 µM | 
Cc1ccc(C)c(OCCCC(C)(C)C(=O)O)c1 [gemfibrozil] |  |  |  | reduction in cardiovascular events or death [7]: 22%
